Assay results as given in ChEMBL document CHEMBL3407364, “Synthesis and antitumor activity of ring A modified 11-keto-β-boswellic acid derivatives” (Eur J Med Chem, 2015).
Activity calls are given as the source filed them. No cut-off for these calls is given here.

Legend:
Assay type in all cases: functional, cell-based
A2780 [1] = experiment: Cytotoxicity against human A2780 cells assessed as cell survival after 96 hrs by SRB assay; conditions: A2780, 96 h
[2] = Cytotoxicity against human A253 cells assessed as cell survival after 96 hrs by SRB assay; conditions: A253, 96 h
[3] = Cytotoxicity against human DLD1 cells assessed as cell survival after 96 hrs by SRB assay; conditions: DLD-1, 96 h
HT-29 = experiment: Cytotoxicity against human HT-29 cells assessed as cell survival after 96 hrs by SRB assay; conditions: HT-29, 96 h
[4] = Cytotoxicity against human HCT8 cells assessed as cell survival after 96 hrs by SRB assay; conditions: HCT-8, 96 h
A2780 [5] = experiment: Induction of apoptosis in human A2780 cells assessed as DNA fragmentation at IC90 after 24 hrs by DNA-laddering assay
A2780 [6] = experiment: Induction of apoptosis in human A2780 cells assessed as intact cell membrane at IC90 after 24 hrs by trypan blue exclusion assay

Row | SMILES | IC50 (A2780 [1]) [µM] | IC50 [2] [µM] | IC50 [3] [µM] | IC50 (HT-29) [µM] | IC50 [4] [µM] | Activity (A2780 [5]) | Activity (A2780 [6])
1 | COC(=O)[C@]1(C)[C@@H]2CC[C@]3(C)[C@H](C(=O)C=C4[C@@H]5[C@@H](C)[C@H](C)CC[C@]5(C)CC[C@]43C)[C@@]2(C)CC1(O)C(=O)O (some centres not stated) | 53.6 | 54.9 | 56.1 | 51.4 | 46.9 | – | –
2 | CC(=O)O[C@@H]1CC[C@@]2(C)[C@@H](CC[C@]3(C)[C@@H]2C(=O)C=C2[C@@H]4[C@@H](C)[C@H](C)CC[C@]4(C)CC[C@]23C)[C@@]1(C)C(=O)O [AKBA] | 14.1 | 16.9 | 20.9 | 19.4 | 17.5 | – | –
3 | COC(=O)[C@@]1(C)C(=O)C(O)=C[C@]2(C)[C@H]3C(=O)C=C4[C@@H]5[C@@H](C)[C@H](C)CC[C@]5(C)CC[C@@]4(C)[C@]3(C)CC[C@@H]12 | 41.1 | 42.3 | 34.1 | 29.9 | 39.7 | – | –
4 | COC(=O)[C@@]1(C)[C@@H](C(=O)O)CC[C@@]2(C)[C@H]1CC[C@]1(C)[C@@H]2C(=O)C=C2[C@@H]3[C@@H](C)[C@H](C)CC[C@]3(C)CC[C@]21C | 35.4 | 38.2 | 42.7 | 34.1 | 41.7 | – | –
5 | COC(=O)[C@@]1(C)C=CC[C@@]2(C)[C@H]1CC[C@]1(C)[C@@H]2C(=O)C=C2[C@@H]3[C@@H](C)[C@H](C)CC[C@]3(C)CC[C@]21C | 40.1 | 40.2 | 32.9 | 30.2 | 39.4 | – | –
6 | COC(=O)[C@@]1(C)/C(=N/O)CC[C@@]2(C)[C@H]1CC[C@]1(C)[C@@H]2C(=O)C=C2[C@@H]3[C@@H](C)[C@H](C)CC[C@]3(C)CC[C@]21C | 18 | 15.5 | 13.7 | 15.4 | 16.4 | – | –
7 | C[C@H]1[C@H](C)CC[C@]2(C)CC[C@]3(C)C(=CC(=O)[C@@H]4[C@@]5(C)CCC(=O)[C@@H](C)[C@@H]5CC[C@]43C)[C@H]12 | 23.5 | 39.4 | 57.3 | 28.2 | 30.2 | – | –
8 | C[C@H]1[C@H](C)CC[C@]2(C)CC[C@]3(C)C(=CC(=O)[C@@H]4[C@@]5(C)CC[C@@H](O)[C@](C)(C(=O)O)[C@@H]5CC[C@]43C)[C@H]12 [11-KETO BOSWELLIC ACID] | 37.9 | 45.9 | 57.7 | 71.9 | 44.6 | – | –
9 | C[C@H]1[C@H](C)CC[C@]2(C)CC[C@]3(C)C(=CC=C4[C@@]5(C)CC[C@@H](O)[C@](C)(CO)[C@@H]5CC[C@]43C)[C@H]12 | 43.2 | 18.1 | 19.5 | 23.9 | 31.3 | – | –
10 | C[C@H]1[C@H](C)CC[C@]2(C)CC[C@]3(C)C(=CC(=O)[C@@H]4[C@@]5(C)CC[C@H](N)[C@](C)(C(=O)O)[C@@H]5CC[C@]43C)[C@H]12 | 7.3 | 5.6 | 9.9 | 8.7 | 12.5 | Active | Active
